In ChEMBL document CHEMBL4619706, “Synthesis, biological evaluation and molecular modeling study of [1,2,4]-Triazolo[4,3-c]quinazolines: New class of EGFR-TK inhibitors” (Bioorg Med Chem, 2020):

Assays:
HepG2 = experiment: Anticancer activity against human HepG2 cells assessed as inhibition of cell growth incubated for 24 hrs by MTT assay; assay type: functional, cell-based; conditions: HepG2, 24 h
MCF7 [1] = experiment: Anticancer activity against human MCF7 cells assessed as inhibition of cell growth incubated for 24 hrs by MTT assay; assay type: functional, cell-based; conditions: MCF7, 24 h
PC-3 = experiment: Anticancer activity against human PC3 cells assessed as inhibition of cell growth incubated for 24 hrs by MTT assay; assay type: functional, cell-based; conditions: PC-3, 24 h
HCT-116 = experiment: Anticancer activity against human HCT116 cells assessed as inhibition of cell growth incubated for 24 hrs by MTT assay; assay type: functional, cell-based; conditions: HCT-116, 24 h
HeLa = experiment: Anticancer activity against human HeLa cells assessed as inhibition of cell growth incubated for 24 hrs by MTT assay; assay type: functional, cell-based
[2] = target: Epidermal growth factor receptor (Homo sapiens, UniProt P00533); experiment: Inhibition of human EGFR-TK using PTK substrate after 40 mins in presence of ATP by Kinase-Glo luminescent assay
MCF7 [3] = experiment: Induction of apoptosis in human MCF7 cells assessed after 24 hrs by Annexin V-FITC/propidium iodide double staining based FACSCalibur flow cytometry analysis; assay type: functional, cell-based
MCF7 [4] = experiment: Induction of apoptosis in human MCF7 cells assessed as viable cells after 24 hrs by Annexin V-FITC/propidium iodide double staining based FACSCalibur flow cytometry analysis (reference value: 97.89 %); assay type: functional
MCF7 [5] = experiment: Induction of apoptosis in human MCF7 cells assessed as early apoptotic cells after 24 hrs by Annexin V-FITC/propidium iodide double staining based FACSCalibur flow cytometry analysis (reference value: 1.22 %); assay type: functional
MCF7 [6] = experiment: Induction of apoptosis in human MCF7 cells assessed as late apoptotic cells after 24 hrs by Annexin V-FITC/propidium iodide double staining based FACSCalibur flow cytometry analysis (reference value: 0.43 %); assay type: functional
MCF7 [7] = experiment: Induction of apoptosis in human MCF7 cells assessed as necrotic cells after 24 hrs by Annexin V-FITC/propidium iodide double staining based FACSCalibur flow cytometry analysis (reference value: 0.46 %); assay type: functional
MCF7 [8] = experiment: Induction of apoptosis in human MCF7 cells assessed as cumulative apoptosis after 24 hrs by Annexin V-FITC/propidium iodide double staining based FACSCalibur flow cytometry analysis (reference value: 2.11 %); assay type: functional
MCF7 [9] = experiment: Cell cycle arrest in human MCF7 cells assessed as accumulation of cells at G0/G1 phase at IC50 after 24 hrs by propidium iodide/RNase staining based FACSCalibur flow cytometry analysis (reference value: 57.28 %); assay type: functional
MCF7 [10] = experiment: Cell cycle arrest in human MCF7 cells assessed as accumulation of cells at S phase at IC50 after 24 hrs by propidium iodide/RNase staining based FACSCalibur flow cytometry analysis (reference value: 26.49 %); assay type: functional
MCF7 [11] = experiment: Cell cycle arrest in human MCF7 cells assessed as accumulation of cells at G2/M phase at IC50 after 24 hrs by propidium iodide/RNase staining based FACSCalibur flow cytometry analysis (reference value: 16.23 %); assay type: functional
MCF7 [12] = experiment: Cell cycle arrest in human MCF7 cells assessed as accumulation of cells at pre-G1 phase at IC50 after 24 hrs by propidium iodide/RNase staining based FACSCalibur flow cytometry analysis (reference value: 2.11 %); assay type: functional

Epidermal growth factor receptor, sequence (P00533 whole entry): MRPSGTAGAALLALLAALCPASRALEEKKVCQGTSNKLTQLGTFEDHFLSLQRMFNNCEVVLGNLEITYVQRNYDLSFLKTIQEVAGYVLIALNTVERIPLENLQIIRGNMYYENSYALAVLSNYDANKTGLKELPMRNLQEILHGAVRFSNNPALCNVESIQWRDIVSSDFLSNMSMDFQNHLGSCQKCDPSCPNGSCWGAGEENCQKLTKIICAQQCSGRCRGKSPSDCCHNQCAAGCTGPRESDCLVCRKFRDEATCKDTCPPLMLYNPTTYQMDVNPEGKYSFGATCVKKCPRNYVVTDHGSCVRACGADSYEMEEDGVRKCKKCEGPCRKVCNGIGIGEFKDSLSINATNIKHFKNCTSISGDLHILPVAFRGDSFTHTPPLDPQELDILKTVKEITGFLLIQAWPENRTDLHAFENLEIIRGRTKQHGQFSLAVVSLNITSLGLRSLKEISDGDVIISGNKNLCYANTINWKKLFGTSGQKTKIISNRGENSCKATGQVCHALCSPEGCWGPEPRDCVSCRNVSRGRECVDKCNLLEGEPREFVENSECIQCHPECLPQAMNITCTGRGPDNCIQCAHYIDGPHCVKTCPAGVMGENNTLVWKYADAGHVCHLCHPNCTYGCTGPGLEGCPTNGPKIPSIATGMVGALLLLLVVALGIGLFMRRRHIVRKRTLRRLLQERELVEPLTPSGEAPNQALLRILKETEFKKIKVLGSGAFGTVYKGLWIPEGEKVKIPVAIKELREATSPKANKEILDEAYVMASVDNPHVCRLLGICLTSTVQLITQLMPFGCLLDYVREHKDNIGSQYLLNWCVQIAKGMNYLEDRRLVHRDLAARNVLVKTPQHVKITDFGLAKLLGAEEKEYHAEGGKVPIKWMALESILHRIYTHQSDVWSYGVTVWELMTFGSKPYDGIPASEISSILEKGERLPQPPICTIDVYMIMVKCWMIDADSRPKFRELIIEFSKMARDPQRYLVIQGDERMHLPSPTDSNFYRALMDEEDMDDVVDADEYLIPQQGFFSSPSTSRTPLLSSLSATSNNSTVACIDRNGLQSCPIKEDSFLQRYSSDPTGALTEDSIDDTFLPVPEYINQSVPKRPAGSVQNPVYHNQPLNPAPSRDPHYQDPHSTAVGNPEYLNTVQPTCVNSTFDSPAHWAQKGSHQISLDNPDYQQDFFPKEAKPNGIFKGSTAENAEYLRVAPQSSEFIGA

Compound	IC50 (HepG2) [µM]	IC50 (MCF7 [1]) [µM]	IC50 (PC-3) [µM]	IC50 (HCT-116) [µM]	IC50 (HeLa) [µM]	IC50 [2] [µM]	Activity (MCF7 [3])	Activity (MCF7 [4]) [%]	Activity (MCF7 [5]) [%]	Activity (MCF7 [6]) [%]	Activity (MCF7 [7]) [%]	Activity (MCF7 [8]) [%]	Activity (MCF7 [9]) [%]	Activity (MCF7 [10]) [%]	Activity (MCF7 [11]) [%]	Activity (MCF7 [12]) [%]
Cc1cccc(Nc2nc3ccccc3c3nnc(/N=C/c4ccc(F)cc4)n23)c1	24.2	18.2	30.5	20.4	26.5	–	–	–	–	–	–	–	–	–	–	–
O=C(CCl)Nc1nnc2c3ccccc3nc(Sc3ccc(Br)cc3)n12	29.9	34.4	37.1	37.5	30.4	–	–	–	–	–	–	–	–	–	–	–
CN1CCN(CC(=O)Nc2nnc3c4ccccc4nc(Sc4ccc(Br)cc4)n23)CC1	27.2	24.4	41.7	44.9	35.1	–	–	–	–	–	–	–	–	–	–	–
Clc1nc2ccccc2c2nnc(/N=C/C=C/c3ccccc3)n12	11.6	8.34	16.4	12.9	9.16	7.56	–	–	–	–	–	–	–	–	–	–
CCN1CCN(CCCNc2ccc(Oc3nc4ccccc4c4nncn34)cc2)CC1	11.5	12.9	10.6	13.8	14.3	9.51	–	–	–	–	–	–	–	–	–	–
O=C(Nc1nnc2c3ccccc3nc(Sc3ccc(Br)cc3)n12)c1ccc(Cl)c([N+](=O)[O-])c1	18.2	19.8	16.8	20.4	16.2	–	–	–	–	–	–	–	–	–	–	–
CN1CCN(CCCNc2ccc(Oc3nc4ccccc4c4nncn34)cc2)CC1	16.5	15.3	14.3	17.2	12.5	–	–	–	–	–	–	–	–	–	–	–
Nc1nnc2c3ccccc3nc(Sc3ccc(Br)cc3)n12	44.9	57.3	59.5	63.5	45.2	–	–	–	–	–	–	–	–	–	–	–
Nc1nc(Nc2nnc3c4ccccc4nc(Sc4ccc(Br)cc4)n23)cs1	10.3	8.9	10.5	11.5	13.4	0.69	Dose-dependent effect	72.85	7.58	17.3	2.27	27.15	35.76	22.81	41.43	27.15
COc1ccc(/C=N/c2nnc3c4ccccc4nc(Nc4ccc(C)cc4N)n23)cc1O	9.8	12.3	17.7	8.27	10.1	4.28	–	–	–	–	–	–	–	–	–	–
Nc1ccc(Oc2nc3ccccc3c3nncn23)cc1	26.2	20.5	26.7	27.6	25.7	–	–	–	–	–	–	–	–	–	–	–
CCN1CCN(CC(=O)Nc2nnc3c4ccccc4nc(Sc4ccc(Br)cc4)n23)CC1	11.6	12.5	10.7	15.2	15.4	3.91	–	–	–	–	–	–	–	–	–	–
O=[N+]([O-])c1cccc(/C=N/c2nnc3c4ccccc4nc(Cl)n23)c1	55.5	48.2	60.2	49.2	73.4	–	–	–	–	–	–	–	–	–	–	–
Clc1nc2ccccc2c2nnc(/N=C/c3ccccc3)n12	19.3	17.1	27.5	22.5	34.7	–	–	–	–	–	–	–	–	–	–	–
COc1ccc(/C=N/c2nnc3c4ccccc4nc(Cl)n23)cc1O	49.2	37.2	33.5	31	29.4	–	–	–	–	–	–	–	–	–	–	–
O=C1CSCC(=O)N1c1nnc2c3ccccc3nc(Sc3ccc(Br)cc3)n12	8.43	9.48	10.7	12	11.8	4.1	–	–	–	–	–	–	–	–	–	–
O=C(CN1CCOCC1)Nc1nnc2c3ccccc3nc(Sc3ccc(Br)cc3)n12	50.3	55.6	61.5	–	47.1	–	–	–	–	–	–	–	–	–	–	–
COc1cccc2c1C(=O)c1c(O)c3c(c(O)c1C2=O)C[C@@](O)(C(=O)CO)C[C@@H]3O[C@H]1C[C@H](N)[C@H](O)[C@H](C)O1 [DOXORUBICIN]	–	–	–	–	–	–	–	67.84	9.28	19.81	3.07	32.16	32.16	22.91	48.57	32.16
Clc1nc2ccccc2c2nnc(/N=C/c3ccco3)n12	15	9.73	21.7	14.8	18.9	0.74	Dose-dependent effect	91.44	2.92	4.22	1.42	8.56	46.72	30.19	23.09	8.56
C(=N\c1nnc2c3ccccc3nc(Nc3ccccc3)n12)/c1ccccc1	19.2	20.3	12.6	24.8	22.3	–	–	–	–	–	–	–	–	–	–	–
O=[N+]([O-])c1cccc(/C=N/c2nnc3c4ccccc4nc(Nc4ccccc4)n23)c1	44.1	40.4	35.7	34.6	31.4	–	–	–	–	–	–	–	–	–	–	–
O=C(Nc1nnc2c3ccccc3nc(Sc3ccc(Br)cc3)n12)c1ccccc1	32.4	30.2	29.9	44.2	46.4	–	–	–	–	–	–	–	–	–	–	–
c1ccc(N2CCN(CCCNc3ccc(Oc4nc5ccccc5c5nncn45)cc3)CC2)cc1	24.2	30.5	51.5	32.5	23.4	–	–	–	–	–	–	–	–	–	–	–
c1ccc2c(c1)nc(Oc1ccc(NCCCN3CCOCC3)cc1)n1cnnc21	46.2	38.5	41.6	39.6	44.3	–	–	–	–	–	–	–	–	–	–	–
Nc1cc([N+](=O)[O-])ccc1Nc1nc2ccccc2c2nnc(/N=C/C=C/c3ccccc3)n12	13.7	32.7	25.2	11.6	36.1	–	–	–	–	–	–	–	–	–	–	–
Fc1ccc(/C=N/c2nnc3c4ccccc4nc(Cl)n23)cc1	31.2	25.9	38.5	18.5	29.2	–	–	–	–	–	–	–	–	–	–	–
N#CC1=C(N)N(c2nnc3c4ccccc4nc(Sc4ccc(Br)cc4)n23)C(=O)C1	15.3	8.58	10.6	13.5	9.47	1.8	Dose-dependent effect	80.59	7.26	10.26	1.89	19.41	41.33	25.46	33.21	19.41
C(=N\c1nnc2c3ccccc3nc(Nc3ccccc3)n12)/c1ccco1	20.8	19.7	43.9	24.4	15.5	–	–	–	–	–	–	–	–	–	–	–
